Laboratory results from the supplement of paper PMC10307832.

What was measured:
Test in all cases: relative viability (nuclei count vs DMSO), 5 days (fraction); higher = more cells survive
[1] = test system: NCI-H1915; conditions: first compound 0.5 µM
Summary of the method: (§1)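 Lung cancer cell lines were seeded in 1536-well plates and dosed by pin tool the next day, with either a single drug or a fixed anchor-drug dose combined with five library-drug doses (not always all listed) spaced in √10 steps. Five days later, one step fixed the cells and stained their nuclei (final 0.05% Triton X-100, 1% formaldehyde, 1 ug/ml Hoechst), and nuclei were counted on 4× images. Relative viability is the nuclei count in treated wells divided by the count in vehicle wells, and each value is the median of duplicate plates.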

[2] = test system: SK-LU-1
Summary of the method: as §1

[3] = test system: NCI-H460
Summary of the method: as §1

[4] = test system: LC-2-ad
Summary of the method: as §1

[5] = test system: A-427
Summary of the method: as §1

[6] = test system: UMC-11
Summary of the method: as §1

[7] = test system: HOP-62
Summary of the method: as §1

[8] = test system: LXF-289
Summary of the method: as §1

[9] = test system: HCC-366
Summary of the method: as §1

[10] = test system: LU99A
Summary of the method: as §1

[11] = test system: NCI-H2009
Summary of the method: as §1

With `COc1cc2nccc(Oc3ccc(NC(=O)Nc4cc(C)on4)c(Cl)c3)c2cc1OC` [Tivozanib] + O=C(CCCCCCC(=O)Nc1ccccc1)NO [Vorinostat] (partner 1 µM) the relative viability [1] was 0.399, the relative viability ([2]; first compound 0.005 µM) was 0.796 and the relative viability ([2]; first compound 0.01581 µM) was 0.838. It also gave a relative viability ([2]; first compound 0.05 µM) of 0.707, a relative viability ([2]; first compound 0.1581 µM) of 0.6 and a relative viability ([2]; first compound 0.5 µM) of 0.729. For the same compound, the relative viability ([3]; first compound 0.005 µM) was 0.651, the relative viability ([3]; first compound 0.01581 µM) was 0.741 and the relative viability ([3]; first compound 0.05 µM) was 0.748. It also gave a relative viability ([3]; first compound 0.1581 µM) of 0.76, a relative viability ([3]; first compound 0.5 µM) of 0.569 and a relative viability ([4]; first compound 0.005 µM) of 0.704. It also gave a relative viability ([4]; first compound 0.01581 µM) of 0.734, a relative viability ([4]; first compound 0.05 µM) of 0.694 and a relative viability ([4]; first compound 0.1581 µM) of 0.592. For the same compound, the relative viability ([4]; first compound 0.5 µM) was 0.34, the relative viability ([5]; first compound 0.005 µM) was 0.741 and the relative viability ([5]; first compound 0.01581 µM) was 0.888. The relative viability ([5]; first compound 0.05 µM) was 0.824, the relative viability ([5]; first compound 0.1581 µM) was 0.857 and the relative viability ([5]; first compound 0.5 µM) was 0.812. It also gave a relative viability ([6]; first compound 0.005 µM) of 0.404, a relative viability ([6]; first compound 0.01581 µM) of 0.36 and a relative viability ([6]; first compound 0.05 µM) of 0.349. The relative viability ([6]; first compound 0.1581 µM) was 0.328, the relative viability ([6]; first compound 0.5 µM) was 0.329 and the relative viability ([7]; first compound 0.005 µM) was 0.633. For the same compound, the relative viability ([7]; first compound 0.01581 µM) was 0.638, the relative viability ([7]; first compound 0.05 µM) was 0.652 and the relative viability ([7]; first compound 0.1581 µM) was 0.376. It also gave a relative viability ([7]; first compound 0.5 µM) of 0.434, a relative viability ([8]; first compound 0.005 µM) of 0.647 and a relative viability ([8]; first compound 0.01581 µM) of 0.674. For the same compound, the relative viability ([8]; first compound 0.05 µM) was 0.741, the relative viability ([8]; first compound 0.1581 µM) was 0.939 and the relative viability ([8]; first compound 0.5 µM) was 0.684. For the same compound, the relative viability ([9]; first compound 0.005 µM) was 0.333, the relative viability ([9]; first compound 0.01581 µM) was 0.323 and the relative viability ([9]; first compound 0.05 µM) was 0.312. It also gave a relative viability ([9]; first compound 0.1581 µM) of 0.305, a relative viability ([9]; first compound 0.5 µM) of 0.244 and a relative viability ([10]; first compound 0.005 µM) of 0.43. For the same compound, the relative viability ([10]; first compound 0.01581 µM) was 0.443, the relative viability ([10]; first compound 0.05 µM) was 0.526 and the relative viability ([10]; first compound 0.1581 µM) was 0.358. It also gave a relative viability ([10]; first compound 0.5 µM) of 0.402, a relative viability ([11]; first compound 0.005 µM) of 0.623 and a relative viability ([11]; first compound 0.01581 µM) of 0.785. The relative viability ([11]; first compound 0.05 µM) was 0.741, the relative viability ([11]; first compound 0.1581 µM) was 0.738 and the relative viability ([11]; first compound 0.5 µM) was 0.621.
